Numbered stars: 1 amine (or outer) side, 2 acyl side, 3 side chain; on linkers, the order of the positions; unused ones are H or OH. Bridge positions count the residues as written; N and C are the ends. Peptide text beside a SMILES is read from it. * marks the point of attachment. X4 = O=C1CN2CCN3CCN(CC(=O)N4CCN(Cc5cc(C[*:1])cc(C[*:2])c5)CC4)CCN(CC2)CC(=O)[O][In]([O]1)[O]C(=O)C3; X1 = O=C(O)CN1CCN(CC(=O)O)CCN(CC(=O)N2CCN(Cc3cc(C[*:1])cc(C[*:2])c3)CC2)CCN(CC(=O)O)CC1; Hexanoyl = CCCCCC(=O)*
Legend:
[1] = Plasma stability assay, human plasma; type: in vitro ADME; settings: 24 h incubation, 37° C., read-out: % intact compound remaining after incubation, Human plasma
[2] = Plasma stability assay, mouse plasma; type: in vitro ADME; settings: 24 h incubation, 37° C., read-out: % intact compound remaining after incubation, Mouse plasma
[3] = biological target: T1, FAP-expressing human WI-38 fibroblasts (Homo sapiens, UniProt Q12884); assay: Competitive FACS binding assay; settings: pIC50 Category (FACS), competition with 3 nM Cy5-labeled compound, WI-38 fibroblasts, 4° C., 1 hour
T1 construct: FAP-expressing human WI-38 fibroblasts (ECACC) were cultured in EMEM; host or cells: WI-38 human fibroblasts
T1 sequence (Q12884 1-760): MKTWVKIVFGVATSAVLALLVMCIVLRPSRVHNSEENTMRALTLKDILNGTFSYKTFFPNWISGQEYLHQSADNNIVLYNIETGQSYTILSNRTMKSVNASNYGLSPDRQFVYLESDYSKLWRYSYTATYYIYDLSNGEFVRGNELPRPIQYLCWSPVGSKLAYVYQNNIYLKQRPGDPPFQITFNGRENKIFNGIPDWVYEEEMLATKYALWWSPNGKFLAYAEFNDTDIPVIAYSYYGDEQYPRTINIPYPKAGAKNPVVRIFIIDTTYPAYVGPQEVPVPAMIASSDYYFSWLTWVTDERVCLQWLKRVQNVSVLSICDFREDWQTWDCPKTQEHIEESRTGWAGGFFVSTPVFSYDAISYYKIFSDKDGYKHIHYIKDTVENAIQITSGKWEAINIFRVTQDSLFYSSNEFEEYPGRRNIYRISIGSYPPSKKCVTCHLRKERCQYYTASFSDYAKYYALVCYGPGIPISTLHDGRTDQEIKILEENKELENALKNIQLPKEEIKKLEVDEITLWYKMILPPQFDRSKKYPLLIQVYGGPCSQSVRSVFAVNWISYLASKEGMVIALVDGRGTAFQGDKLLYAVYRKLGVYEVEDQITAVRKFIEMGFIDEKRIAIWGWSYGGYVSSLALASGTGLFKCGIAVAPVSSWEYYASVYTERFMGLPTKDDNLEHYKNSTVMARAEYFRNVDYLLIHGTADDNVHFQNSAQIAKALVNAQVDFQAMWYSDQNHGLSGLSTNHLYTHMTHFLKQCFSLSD
Description: Cells were analyzed in an Attune NxT flow cytometer. […]

[4] = biological target: T2, Human recombinant FAP (Homo sapiens, UniProt Q12884); assay: Surface plasmon resonance (Biacore) assay; type: binding
T2 sequence (Q12884 1-760): T1 sequence (Q12884 1-760)

[5] = biological target: T3, recombinant human PREP (Homo sapiens, UniProt P48147); assay: PREP protease activity assay; type: biochemical
T3 construct: purchased R&D systems 4308-SE
T3 sequence (P48147 1-710): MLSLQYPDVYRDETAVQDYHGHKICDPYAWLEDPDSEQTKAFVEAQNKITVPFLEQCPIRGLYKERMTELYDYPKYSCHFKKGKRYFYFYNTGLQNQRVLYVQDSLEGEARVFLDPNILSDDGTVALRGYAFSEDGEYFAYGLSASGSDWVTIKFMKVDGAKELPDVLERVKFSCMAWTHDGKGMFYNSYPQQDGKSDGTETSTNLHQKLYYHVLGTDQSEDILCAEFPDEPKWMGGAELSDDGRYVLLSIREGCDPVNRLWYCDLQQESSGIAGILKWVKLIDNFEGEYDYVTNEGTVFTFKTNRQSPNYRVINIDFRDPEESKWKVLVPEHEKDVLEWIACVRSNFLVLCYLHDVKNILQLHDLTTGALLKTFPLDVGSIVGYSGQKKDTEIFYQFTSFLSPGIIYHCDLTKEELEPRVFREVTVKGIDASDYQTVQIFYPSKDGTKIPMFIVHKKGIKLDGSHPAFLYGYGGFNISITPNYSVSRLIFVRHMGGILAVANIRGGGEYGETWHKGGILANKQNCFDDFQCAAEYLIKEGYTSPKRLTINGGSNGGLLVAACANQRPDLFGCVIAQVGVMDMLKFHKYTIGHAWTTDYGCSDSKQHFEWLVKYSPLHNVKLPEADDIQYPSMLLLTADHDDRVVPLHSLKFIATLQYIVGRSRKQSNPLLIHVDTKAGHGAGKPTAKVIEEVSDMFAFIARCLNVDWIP

[6] = biological target: T4, Recombinant human DPP4 (Homo sapiens, UniProt P27487); assay: DPP4 protease activity assay; type: biochemical
T4 construct: purchased R&D systems 9168-SE

[7] = biological target: T2, Human recombinant FAP; assay: FRET-based FAP protease activity assay; type: biochemical; set-up: purchased R&D systems 3715-SE; settings: pIC50 Category (Activity), recombinant human FAP, FRET substrate, 37° C.
[8] = system: Na+ channel (site 2); assay: SafetyScreen44: Na+ channel (site 2) (antagonist radioligand); type: binding; settings: 10 μM
[9] = biological target: T5, proteases (Hepatitis C virus genotype 1a, UniProt P27958, D1194V); assay: biochemical; settings: read-out: Percentage inhibition (%)
T5 construct: BPS Biosciences (contract assay)

[10] = biological target: T6, proteases (Hepatitis C virus genotype 1b, UniProt P26663); assay: biochemical; settings: read-out: Percentage inhibition (%)
T6 construct: BPS Biosciences (contract assay)

[11] = biological target: T7, proteases (Hepatitis C virus genotype 1b, UniProt P26663, D1194V); assay: biochemical; settings: read-out: Percentage inhibition (%)
T7 construct: BPS Biosciences (contract assay)

[12] = biological target: T8, proteases (Hepatitis C virus genotype 1b, UniProt P26663, R1181K); assay: biochemical; settings: read-out: Percentage inhibition (%)
T8 construct: BPS Biosciences (contract assay)

[13] = biological target: T9, proteases (Hepatitis C virus genotype 1b, UniProt P26663, R1181Q); assay: biochemical; settings: read-out: Percentage inhibition (%)
T9 construct: BPS Biosciences (contract assay)

[14] = system: BZD (central); settings: 10 μM
[15] = system: NMDA; settings: 10 μM
[16] = system: Ca2+ channel (L, dihydropyridine site); settings: 10 μM
[17] = system: KV channel; settings: for % Inhibition of Specific Binding: 10 μM
[18] = in vitro; settings: rat, plasma
[19] = biological target: hERG potassium channel (Homo sapiens, UniProt Q12809); assay: in vitro
[20] = biological target: AR (h) (Homo sapiens, UniProt P10275, T878A); assay: biochemical; settings: read-out: % Inhibition of Specific Binding
[21] = in vivo; settings: rat, plasma, intravenous; for Vd: rat plasma

## CCCC[C@H](NC(=O)CCC(=O)NCCCOCCOCCOCCCNC(=O)CN1CCN(CC(=O)O)CCN(CC(=O)O)CCN(CC(=O)O)CC1)C(=O)N[C@H]1CSCc2cccc(c2)CSC[C@@H](C(=O)NCCC(=O)O)NC(=O)[C@H](Cc2ccccc2)NC(=O)[C@H](CCC(N)=O)NC(=O)[C@H]([C@@H](C)O)NC(=O)[C@@H]2CCCN2C(=O)[C@@H]2CCCN2C1=O [3BP-3398, DOTA-Ttds-Nle-[Cys(3MeBn)-Pro-Pro-Thr-Gln-Phe-Cys]-Bal-OH]
[1]
  remaining at 24 h, 9.8 µM: 99%
[2]
  remaining at 24 h, 9.8 µM: 94%
[3]
  IC50: < 10 nM
[4]
  Kd: < 10 nM
[5]
  IC50: > 1000 nM
[6]
  IC50: > 1000 nM
[7]
  IC50: < 10 nM

## CCCCCC(=O)N[C@H]1CSCc2cc(cc(CN3CCN(C(=O)CN4CCN(CC(=O)O)CCN(CC(=O)O)CCN(CC(=O)O)CC4)CC3)c2)CSC[C@@H](C(=O)N[C@@H](CC(=O)O)C(N)=O)NC(=O)[C@H](Cc2ccccc2)NC(=O)[C@H](CCC(N)=O)NC(=O)[C@H]([C@@H](C)O)NC(=O)[C@@H]2CCCN2C(=O)[C@@H]2CCCN2C1=O [3BP-3407, Hex-[Cys(tMeBn(DOTA-PP))-Pro-Pro-Thr-Gln-Phe-Cys]-Asp-NH2] (Hexanoyl-CPPTQFCD-NH2; linker 1-7 via X1)
[1]
  remaining at 24 h, 9.8 µM: 100%
[2]
  remaining at 24 h, 9.8 µM: 79%
[3]
  IC50: < 10 nM
[4]
  Kd: < 10 nM
[5]
  IC50: > 1000 nM
[6]
  IC50: > 1000 nM
[8]
  % Inhibition of Specific Binding: −7%
[9]
  inhibition at 1 µM: 1%
  inhibition at 10 µM: -68%
[10]
  inhibition at 1 µM: 1%
  inhibition at 10 µM: 5%
[11]
  inhibition at 1 µM: 1%
  inhibition at 10 µM: -6%
[12]
  inhibition at 1 µM: -2%
  inhibition at 10 µM: 5%
[13]
  inhibition at 1 µM: 0%
  inhibition at 10 µM: 2%
[14]
  % Inhibition of Specific Binding: −9%
[15]
  % Inhibition of Specific Binding: 9%
[16]
  % Inhibition of Specific Binding: 42%
[17]
  % Inhibition of Specific Binding: −5%
[18]
  remaining at 24 h, 9.8 µM: 100%
[19]
  inhibition at 10 µM: 2%
[20]
  inhibition at 10 µM: 3%
[7]
  IC50: < 10 nM

## CCCCCC(=O)N[C@H]1CSCc2cc(CSCCNC(=O)CN3CCN(CC(=O)O)CCN(CC(=O)O)CCN(CC(=O)O)CC3)cc(c2)CSC[C@@H](C(=O)O)NC(=O)[C@H](Cc2ccccc2)NC(=O)[C@H](CCC(N)=O)NC(=O)[C@H]([C@@H](C)O)NC(=O)[C@@H]2CCCN2C(=O)[C@@H]2CCCN2C1=O [3BP-3554, Hex-[Cys(tMeBn(DOTA-AET))-Pro-Pro-Thr-Gln-Phe-Cys]-OH]
[1]
  remaining at 24 h, 9.8 µM: 100%
[3]
  IC50: < 10 nM
[4]
  Kd: < 10 nM
[5]
  IC50: > 1000 nM
[6]
  IC50: > 1000 nM
[8]
  % Inhibition of Specific Binding: 14%
[9]
  inhibition at 1 µM: -39%
[10]
  inhibition at 1 µM: -5%
  inhibition at 10 µM: -9%
[11]
  inhibition at 1 µM: -2%
  inhibition at 10 µM: -17%
[12]
  inhibition at 1 µM: -1%
  inhibition at 10 µM: 0%
[13]
  inhibition at 1 µM: 0%
  inhibition at 10 µM: -5%
[14]
  % Inhibition of Specific Binding: 5%
[15]
  % Inhibition of Specific Binding: 1%
[16]
  % Inhibition of Specific Binding: 54%
[17]
  % Inhibition of Specific Binding: 4%
[18]
  remaining at 24 h, 9.8 µM: 100%
[21]; 2 nmol/kg
  AUC(0-inf): 0.0081 µM·h
  C0: 10.3 nM
  clearance: 4.13 mL/min/kg
  half-life: 54 min
[21]; 2 nmol/kg, Vss, 2 nmol/kg
  Vd: 0.28 L/kg
[21]; 2 nmol/kg, Vz
  Vd: 0.32 L/kg
[21]; 20 nmol/kg
  AUC(0-inf): 0.069 µM·h
  C0: 111 nM
  clearance: 4.85 mL/min/kg
  half-life: 50 min
[21]; 20 nmol/kg, Vss, 20 nmol/kg
  Vd: 0.3 L/kg
[21]; 20 nmol/kg, Vz
  Vd: 0.35 L/kg
[21]; 200 nmol/kg
  AUC(0-inf): 0.726 µM·h
  C0: 1480 nM
  clearance: 4.58 mL/min/kg
  half-life: 63 min
[21]; 200 nmol/kg, Vss, 200 nmol/kg
  Vd: 0.17 L/kg
[21]; 200 nmol/kg, Vz
  Vd: 0.42 L/kg
[19]
  inhibition at 10 µM: 6%
[20]
  inhibition at 10 µM: -5%
[7]
  IC50: < 10 nM

## CCCCCC(=O)N[C@H]1CSCc2cc(cc(CN3CCN(C(=O)CN4CCN5CCN6CCN(CC4)CC(=O)[O][In]([O]C(=O)C6)[O]C(=O)C5)CC3)c2)CSC[C@@H](C(=O)N[C@@H](CC(=O)O)C(N)=O)NC(=O)[C@H](Cc2ccccc2)NC(=O)[C@H](CCC(N)=O)NC(=O)[C@H]([C@@H](C)O)NC(=O)[C@@H]2CCCN2C(=O)[C@@H]2CCCN2C1=O [3BP-3590, Indium-Complex of Hex-[Cys(tMeBn(DOTA-PP))-Pro-Pro-Thr-Gln-Phe-Cys]-Asp-NH2] (Hexanoyl-CPPTQFCD-NH2; linker 1-7 via X4)
[1]
  remaining at 24 h, 9.8 µM: 94%
[2]
  remaining at 24 h, 9.8 µM: 100%
[3]
  IC50: < 10 nM
[4]
  Kd: < 10 nM
[18]
  remaining at 24 h, 9.8 µM: 100%
[7]
  IC50: < 10 nM

## CCCCCC(=O)N[C@H]1CSCc2cc(CSCCNC(=O)CN3CCN4CCN5CCN(CC3)CC(=O)[O][Lu]([O]C(=O)C4)[O]C(=O)C5)cc(c2)CSC[C@@H](C(=O)O)NC(=O)[C@H](Cc2ccccc2)NC(=O)[C@H](CCC(N)=O)NC(=O)[C@H]([C@@H](C)O)NC(=O)[C@@H]2CCCN2C(=O)[C@@H]2CCCN2C1 [3BP-3624, Lutetium-Complex of Hex-[Cys(tMeBn(DOTA-AET))-Pro-Pro-Thr-Gln-Phe-Cys]-OH]
[1]
  remaining at 24 h, 9.8 µM: 100%
[2]
  remaining at 24 h, 9.8 µM: 100%
[3]
  IC50: < 10 nM
[4]
  Kd: < 10 nM
[18]
  remaining at 24 h, 9.8 µM: 100%
[7]
  IC50: < 10 nM

## alpha-dendrotoxin
[17]; read-out: Ki Ref, reference compound (positive control)
  Ki: 0.097 nM
